Test results: patent publication US20230217975A1, “PERFUME COMPOSITION” (AJINOMOTO CO., INC., priority 2020, published 2023)

Columns and labels:
panel of 4 experts [1] = experiment: Sensory evaluation of strength of mouth-coating feel in mayonnaise (Examples 1, 5, 6); format: in vivo; settings: for strength of mouth-coating feel, single component compound (I) / strength of mouth-coating feel, two components compound (I) and furfural / strength of mouth-coating feel, two components compound (I) and β-caryophyllene oxide / strength of mouth-coating feel, three components compound (I), β-caryophyllene oxide and furfural: compound (I) 10 weight ppb; for strength of mouth-coating feel, two components compound (I) and furfural / strength of mouth-coating feel, three components compound (I), β-caryophyllene oxide and furfural: furfural 500 weight ppb; for strength of mouth-coating feel, two components compound (I) and β-caryophyllene oxide / strength of mouth-coating feel, three components compound (I), β-caryophyllene oxide and furfural: β-caryophyllene oxide 500 weight ppb; for strength of mouth-coating feel, no use of compound (I), single component: 500 weight ppb; for strength of mouth-coating feel, three components compound (II), β-caryophyllene oxide, and cyclotene: tested at 0.01 µg/mL; for strength of mouth-coating feel, two components compound (II) and cyclotene: tested at 0.01 µg/mL; for strength of mouth-coating feel, two components compound (II) and β-caryophyllene oxide: tested at 0.01 µg/mL
Description: As a positive control, general commercially available mayonnaise (manufactured by Ajinomoto Co., Inc., trade name “Pure Select (registered trade mark) mayonnaise”, oil and fat content: 73%) was used. As a negative control (NC), commercially available mayonnaise (manufactured by Ajinomoto Co., Inc., trade name “Pure Select (registered trade mark) KOKUUMA (registered trade mark) 65% Calorie Cut”, oil and fat content: 23%) with a smaller oil and fat content as compared with positive control mayonnaise was used.
Experimental samples were produced by adding at least one compound selected from cyclotene, β-caryophyllene oxide, and furfural to the aforementioned commercially available mayonnaise (manufactured by Ajinomoto Co., Inc., trade name “Pure Select (registered trade mark) KOKUUMA (registered trade mark) 65% Calorie Cut”, oil and fat content: 23%) used as the negative control, such that the concentration of each compound in the food (mayonnaise) was a concentration shown in the following Tables 1 to 3 (in the following, each experimental sample is also to be referred to as “sample of experimental plot 1-1” to “sample of experimental plot 1-39”).
Cyclotene, octanoic acid, and isovaleric acid were added to the aforementioned commercially available mayonnaise (manufactured by Ajinomoto Co., Inc., trade name “Pure Select (registered trade mark) KOKUUMA (registered trade mark) 65% Calorie Cut”, oil and fat content: 23%) used as the negative control, such that the concentration of cyclotene in the food (mayonnaise) was 100 weight ppb, the concentration of octanoic acid was 200 weight ppb, and the concentration of isovaleric acid was 100 weight ppb to produce the sample of control plot 1.
A sensory evaluation was performed on the strength of mouth-coating feel of experimental samples, and the presence or absence of off-flavor.
For the evaluation of a mouth-coating feel, a panel of 4 experts ate each mayonnaise of positive control, negative control and experimental sample (samples of experimental plots 1-1 to 1-39 and control plot 1), and graded each experimental sample in 0.1 point increments (non-blind) in the range of 0.0 to 5.0 points, with the positive control being 5.0 points and the negative control being 0.0 point, by averaging the obtained scores of the panel of 4 experts. When the score was 1.0 or more, it was determined that there was an effect of enhancing the mouth-coating feel. The panel of 4 experts was trained in advance so that they have common understanding as to the degree of change in the mouth-coating feel that is required to change the score by 0.1 point.
Experimental samples were produced by adding at least one compound selected from compound (I) shown in the following Table 8 (any of cyclotene, γ-butyrolactone, 2-methyltetrahydrofuran-3-one, α-angelicalactone, maltol, 3-methyl-1,2-cyclohexanedione, γ-dodecanolactone, 5-dodecanolide, 4,5-dimethyl-3-hydroxy-2,5-dihydrofuran-2-one, and D-camphor), β-caryophyllene oxide, and furfural to the aforementioned commercially available mayonnaise (manufactured by Ajinomoto Co., Inc., trade name “Pure Select (registered trade mark) KOKUUMA (registered trade mark) 65% Calorie Cut”, oil and fat content: 23%) used as the negative control. Compound (I) was added such that the concentration of compound (I) in the food (mayonnaise) was 10 weight ppb, β-caryophyllene oxide was added such that the concentration of β-caryophyllene oxide in the food (mayonnaise) was 500 weight ppb, and furfural was added such that the concentration of furfural in the food (mayonnaise) was 500 weight ppb.
A sensory evaluation was performed on the strength of mouth-coating feel of experimental samples in the same manner as in Example 1.

panel of 4 experts [2] = experiment: as above; format: in vivo; settings: for strength of mouth-coating feel, single component compound (II) / strength of mouth-coating feel, two components compound (II) and cyclotene / strength of mouth-coating feel, two components compound (II) and β-caryophyllene oxide / strength of mouth-coating feel, three components compound (II), β-caryophyllene oxide, and cyclotene: compound (II) 10 weight ppb; for strength of mouth-coating feel, two components compound (II) and cyclotene / strength of mouth-coating feel, three components compound (II), β-caryophyllene oxide, and cyclotene: cyclotene 500 weight ppb; for strength of mouth-coating feel, two components compound (II) and β-caryophyllene oxide / strength of mouth-coating feel, three components compound (II), β-caryophyllene oxide, and cyclotene: β-caryophyllene oxide 500 weight ppb; for strength of mouth-coating feel, no use of compound (II), single component: 500 weight ppb as printed in b569

SMILES	strength of mouth-coating feel, single component compound (I) (panel of 4 experts [1])	strength of mouth-coating feel, two components compound (I) and furfural (panel of 4 experts [1])	strength of mouth-coating feel, two components compound (I) and β-caryophyllene oxide (panel of 4 experts [1])	strength of mouth-coating feel, three components compound (I), β-caryophyllene oxide and furfural (panel of 4 experts [1])	strength of mouth-coating feel, no use of compound (I), single component (panel of 4 experts [1])	strength of mouth-coating feel, single component compound (II) (panel of 4 experts [2])	strength of mouth-coating feel, two components compound (II) and cyclotene (panel of 4 experts [2])	strength of mouth-coating feel, two components compound (II) and β-caryophyllene oxide (panel of 4 experts [2])	strength of mouth-coating feel, three components compound (II), β-caryophyllene oxide, and cyclotene (panel of 4 experts [2])	strength of mouth-coating feel, no use of compound (II), single component (panel of 4 experts [2])
CC1(C)[C@@H]2CC[C@@]1(C)C(=O)C2 [D-camphor]	0.4	2.6	3.1	4.2	–	–	–	–	–	–
O=Cc1ccco1 [furfural]	–	–	–	–	0.3	0.3	2.2	2.2	4.7	–
CC1=C(O)C(=O)CC1 [cyclotene]	0.5	2.5	3.2	4.7	–	–	–	–	–	0.5
OCc1ccco1 [furfuryl alcohol]	–	–	–	–	–	0.1	2.2	2.0	4.1	–
C=C1CC[C@H]2O[C@]2(C)CC[C@@H]2[C@@H]1CC2(C)C [β-caryophyllene oxide]	–	–	–	–	1.5	–	–	–	–	1.5
O=C1CCCO1 [γ-butyrolactone]	0.5	2.2	3.2	4.2	–	–	–	–	–	–
Cc1ccc(C=O)o1 [5-methylfurfural]	–	–	–	–	–	0.2	2.4	2.1	4.2	–
CC(=O)c1ccco1 [2-acetylfuran]	–	–	–	–	–	0.2	2.4	2.0	4.3	–
CC1=C(O)C(=O)OC1C (stereo not shown) [4,5-dimethyl-3-hydroxy-2,5-dihydrofuran-2-one]	0.3	2.3	2.9	4.2	–	–	–	–	–	–
Cc1occc(=O)c1O [maltol]	0.4	2.3	3.0	4.2	–	–	–	–	–	–
CC(=O)c1cc(C)oc1C [3-acetyl-2,5-dimethylfuran]	–	–	–	–	–	0.2	2.5	2.0	4.2	–
c1coc(Cn2cccc2)c1 [1-furfurylpyrrole]	–	–	–	–	–	0.2	2.4	2.2	4.1	–
CCC(=O)OCc1ccco1 [furfuryl propionate]	–	–	–	–	–	0.2	2.4	2.2	4.3	–
O=Cc1ccc(CO)o1 [5-(hydroxymethyl)furfural]	–	–	–	–	–	0.2	2.5	2.2	4.3	–
CC(=O)c1ccc(C)o1 [2-acetyl-5-methylfuran]	–	–	–	–	–	0.2	2.2	2.2	4.4	–
CC1OCCC1=O (stereo not shown) [2-methyltetrahydrofuran-3-one]	0.5	2.4	3.2	4.2	–	–	–	–	–	–
CC1CCCC(=O)C1=O (stereo not shown) [3-methyl-1,2-cyclohexanedione]	0.5	2.3	3.0	4.4	–	–	–	–	–	–
CC1=CCC(=O)O1 [α-angelicalactone]	0.5	2.3	2.9	4.2	–	–	–	–	–	–
CCCCCCCC1CCCC(=O)O1 (stereo not shown) [5-dodecanolide]	0.5	2.4	3.2	4.2	–	–	–	–	–	–
